The values below come from patent publication US20240390285A1, “HIGH-DOSE COMPRESSIBLE DOSAGE FORMS MANUFACTURED BY SIMULTANEOUS MELT-COATING AND MELT-GRANULATION OF ACTIVE PHARMACEUTICAL INGREDIENTS” (Rutgers, The State University of New Jersey, priority 2021, published 2024).

A short description of data set [1]: Percent loss-on-drying (LOD). Format: physicochemical.
The nature of data set [2]: Granule tabletability, […] compactor simulator. Particulars: 600 mg darunavir, 12 mm. Format: physicochemical. The method, then:
This provided an assessment of granule tabletability using a […] compactor simulator, producing 12 mm flat cylindrical tablets having a thickness of approximately 4.6 mm.
The processing parameters for the granules in table 8 were: 0.4 kg/h throughput, 300 rpm screw speed, 60° C. processing temperature.
The granules were blended with 1% of MgSt and formed into tablets using […] tooling.

The conditions of data set [3]: cited from earlier work.
For data set [4] the following is noted: cited from earlier work. This is another data set of the same source.
[5] abbreviates: tablet 96% darunavir + 1% MgSt + 3% CMC-Na, avg. pre-compression force 1.54-1.84 kN.
[6] abbreviates: tablet 99% darunavir + 1% MgSt, avg. pre-compression force 1.67-1.80 kN.
[7] abbreviates: tablet 99% darunavir + 1% MgSt, avg. pre-compression force 9.59-10.16 kN.

Structures are written as SMILES. Several values for one entry are separate records, joined by “and”; a condition that tells them apart may be missing. Identical values can stand only once. Like-named read-outs stand apart in the source and are kept apart here.

As to `CC(C)CN(C[C@@H](O)[C@H](Cc1ccccc1)NC(=O)O[C@H]1CO[C@H]2OCC[C@H]21)S(=O)(=O)c1ccc(N)cc1` [darunavir, Darunavir], the “percent loss-on-drying, Avg.” value in data set [1] (average of 3 samples) is given as 4.42%. Further, in data set [1] (individual Samples 1-3, listed as Pure Darunavir), the “percent loss-on-drying (weight loss due to moisture evaporation)” value was 4.36% and 4.28% and 4.63%. For the same molecule, the results for the “Avg. Crushing Force/Hardness” value in data set [2] (setting [5]), in data set [2] (setting [6]) and in data set [2] (setting [7]) were 65.3 N, 42.9 N and 36.8 N, respectively. Also, the Tablet density in data set [2] (setting [5]) is 1.16 g/mL; in data set [2] (setting [6]), 1.14 g/mL; in data set [2] (setting [7]) it was 1.15 g/mL. For the same molecule, the “Tensile Strength” value is 0.76 MPa in data set [2] (setting [5]), 0.49 MPa in data set [2] (setting [6]) and 0.42 MPa in data set [2] (setting [7]).

Consider `NC(=O)c1nc(F)c[nH]c1=O` [favipiravir, 6-fluoro-3-oxo-3,4-dihydropyrazine-2-carboxamide], for which the “dissociation constant, pKa” value in data set [3] is 5.1. The solubility entry in data set [4] (pH of 2.0-5.5) was “only slightly soluble”; in data set [4] (pH of 5.5-6.1) it was “sparingly soluble”.
